Experimental data from patent publication US20020025918A1, “Methods of using helical peptides in plants” (priority 1987, published 2002).
≈ marks a conversion by molar mass, not a printed value. Where two headings read alike, the source gives them in different places. Residues, ends and D or L forms follow the SMILES beside them.

How the values were obtained:
[1] = test system: Pseudomonas aeruginosa-1; assay: MIC/MBC, fresh isolates; type: cell-based; details: fresh isolate Pseudomonas aeruginosa-1
Description: (§1) The procedure of example 2 was followed using a variety of freshly isolated bacterial samples.

[2] = test system: Enterobacteria Cloacae; assay: MIC/MBC, fresh isolates; type: cell-based; details: fresh isolate Enterobacteria Cloacae
Description: as §1

[3] = test system: Klebsiella pheumoniae; assay: MIC/MBC, fresh isolates; type: cell-based; details: fresh isolate Klebsiella pheumoniae
Description: as §1

[4] = test system: Eschera Coli; assay: MIC/MBC, fresh isolates; type: cell-based; details: fresh isolate Eschera Coli
Description: as §1

[5] = test system: Serratia Marcescens; assay: MIC/MBC, fresh isolates; type: cell-based; details: fresh isolate Serratia Marcescens
Description: as §1

[6] = test system: Staph Coag neg; assay: MIC/MBC, fresh isolates; type: cell-based; details: fresh isolate Staph Coag neg
Description: as §1

[7] = test system: Acinetobacter Cal Anit; assay: MIC/MBC, fresh isolates; type: cell-based; details: fresh isolate Acinetobacter Cal Anit
Description: as §1

[8] = test system: Enterococcus-1; assay: MIC/MBC, fresh isolates; type: cell-based; details: fresh isolate Enterococcus-1
Description: as §1

[9] = test system: Staph aureus; assay: MIC/MBC, fresh isolates; type: cell-based; details: fresh isolate Staph aureus
Description: as §1

[10] = test system: Pseudomonas aeruginosa-2; assay: MIC/MBC, fresh isolates; type: cell-based; details: fresh isolate Pseudomonas aeruginosa-2
Description: as §1

[11] = test system: Pseudomonas aeruginosa-3; assay: MIC/MBC, fresh isolates; type: cell-based; details: fresh isolate Pseudomonas aeruginosa-3
Description: as §1

[12] = test system: Enterococcus-2; assay: MIC/MBC, fresh isolates; type: cell-based; details: fresh isolate Enterococcus-2
Description: as §1

[13] = test system: Citrobacter Freundii; assay: MIC/MBC, fresh isolates; type: cell-based; details: fresh isolate Citrobacter Freundii
Description: as §1

[14] = test system: Citrobacter Diversus; assay: MIC/MBC, fresh isolates; type: cell-based; details: fresh isolate Citrobacter Diversus
Description: as §1

[15] = test system: Enterococcus-3; assay: MIC/MBC, fresh isolates; type: cell-based; details: fresh isolate Enterococcus-3
Description: as §1

[16] = test system: Klebsiella pheumoniae-2; assay: MIC/MBC, fresh isolates; type: cell-based; details: fresh isolate Klebsiella pheumoniae-2
Description: as §1

[17] = test system: Morganella morganil; assay: MIC/MBC, fresh isolates; type: cell-based; details: fresh isolate Morganella morganil
Description: as §1

[18] = Survival of non-infected catfish fingerlings injected with peptide; type: in vivo; details: 200 μg i.p. once per day for 4 days
Method: […] Treatment groups of the fish were then injected intraperitoneally (i.p.) with the lytic peptide LSB-37 dissolved in saline, or a saline control once per day for a period of 4 days.

[19] = test system: S. aureus; assay: MBC and MIC susceptibility test; type: cell-based; details: for antibacterial result of treatment (Table I; MBC): S. auerus (+)
[20] = test system: E. coli; assay: MBC and MIC susceptibility test; type: cell-based
[21] = test system: B-16 myeloma cells; assay: B-16 cell viability, trypan blue exclusion; type: cell-based; details: 100 μM peptide, one hour
Method: (§2) B-16 myeloma cells and normal 3T3 […] fibroblasts were either permitted to attach to the test plate, or treated with trypsin to free the cells from the plastic dish prior to treatment. Cells were then treated with 100 μM lytic peptide for one hour as described above, and cell viability was then determined by trypan blue exclusion.

[22] = Role of cytoskeletal structure in susceptibility to lysis, FDD cell viability; details: donkey, primary fetal donkey dermal cells (FDD), % Viability of Treated DD Cells, 100 μM peptide 15 minutes
[23] = test system: P. aeruginosa; assay: MBC and MIC susceptibility test; type: cell-based; details: for antibacterial result of treatment (Table I; MBC): P. aeruginosa (−)
[24] = 3T3 fibroblast viability, trypan blue exclusion; type: cell-based; details: human, 100 μM peptide, one hour, read-out: % Cell Viability
Method: as §2

[25] = Lytic activity (general statement)
[26] = test system: lymphocytes; type: cell-based, human

Q: For `CC[C@H](C)[C@H](NC(=O)CNC(=O)[C@H](CC(N)=O)NC(=O)[C@H](CCCNC(=N)N)NC(=O)[C@@H](NC(=O)[C@H](CC(N)=O)NC(=O)[C@H](CCCNC(=N)N)NC(=O)CNC(=O)[C@@H](NC(=O)[C@H](CCCCN)NC(=O)[C@H](CCC(=O)O)NC(=O)[C@@H](NC(=O)[C@H](CCCCN)NC(=O)[C@H](CCCCN)NC(=O)[C@H](Cc1ccccc1)NC(=O)[C@@H](NC(=O)[C@H](CCCCN)NC(=O)[C@H](Cc1c[nH]c2ccccc12)NC(=O)[C@H](CCCCN)NC(=O)[C@@H]1CCCN1C(=O)[C@@H](N)CC(C)C)C(C)C)[C@@H](C)CC)C(C)C)[C@@H](C)CC)C(=O)N[C@H](C(=O)N[C@@H](CCCCN)C(=O)N[C@@H](C)C(=O)NCC(=O)N1CCC[C@H]1C(=O)N[C@@H](C)C(=O)N[C@H](C(=O)N[C@@H](C)C(=O)N[C@H](C(=O)N[C@@H](CC(C)C)C(=O)NCC(=O)N[C@@H](CCC(=O)O)C(=O)N[C@@H](C)C(=O)N[C@@H](CCCCN)C(=O)N[C@@H](C)C(=O)N[C@@H](CC(C)C)C(=O)NCC(N)=O)C(C)C)[C@@H](C)CC)C(C)C` [LSB-37] (H-LPKWKVFKKIEKVGRNIRNGIVKAGPAIAVLGEAKALG-NH2), which MBC [1] is on record?
A: The MBC was 16 µM (≈ 65.1 µg/mL).

Q: What about the MIC [1] of the same compound?
A: Its MIC is 8 µM (≈ 32.6 µg/mL).

Q: What about the MBC [2] of the same compound?
A: Its MBC is 8 µM (≈ 32.6 µg/mL).

Q: And the MIC [2]?
A: The MIC was 2 µM (≈ 8.14 µg/mL).

Q: And the MBC [3]?
A: Its MBC is 8 µM (≈ 32.6 µg/mL).

Q: And the MIC [3]?
A: The MIC was 2 µM (≈ 8.14 µg/mL).

Q: What about the MBC [4] of the same compound?
A: Its MBC is 4 µM (≈ 16.3 µg/mL).

Q: And the MIC [4]?
A: Its MIC is 1 µM (≈ 4.07 µg/mL).

Q: What about the MIC [5] of the same compound?
A: The MIC was 32 µM (≈ 130 µg/mL).

Q: And the MIC [6]?
A: Its MIC is 32 µM (≈ 130 µg/mL).

Q: What about the MBC [7] of the same compound?
A: Its MBC is 1 µM (≈ 4.07 µg/mL).

Q: And the MIC [7]?
A: The MIC was 0.5 µM (≈ 2.04 µg/mL).

Q: And the MBC [8]?
A: The MBC was 32 µM (≈ 130 µg/mL).

Q: What about the MIC [8] of the same compound?
A: Its MIC is 8 µM (≈ 32.6 µg/mL).

Q: What about the MIC [9] of the same compound?
A: Its MIC is 32 µM (≈ 130 µg/mL).

Q: And the MBC [10]?
A: The MBC was 16 µM (≈ 65.1 µg/mL).

Q: And the MIC [10]?
A: Its MIC is 4 µM (≈ 16.3 µg/mL).

Q: And the MBC [11]?
A: Its MBC is 16 µM (≈ 65.1 µg/mL).

Q: What about the MIC [11] of the same compound?
A: Its MIC is 8 µM (≈ 32.6 µg/mL).

Q: What about the MIC [12] of the same compound?
A: The MIC was 32 µM (≈ 130 µg/mL).

Q: And the MBC [13]?
A: Its MBC is 4 µM (≈ 16.3 µg/mL).

Q: And the MIC [13]?
A: Its MIC is 1 µM (≈ 4.07 µg/mL).

Q: What about the MBC [14] of the same compound?
A: Its MBC is 4 µM (≈ 16.3 µg/mL).

Q: What about the MIC [14] of the same compound?
A: The MIC was 1 µM (≈ 4.07 µg/mL).

Q: What about the MIC [15] of the same compound?
A: The MIC was 32 µM (≈ 130 µg/mL).

Q: And the MBC [16]?
A: The MBC was 8 µM (≈ 32.6 µg/mL).

Q: What about the MIC [16] of the same compound?
A: The MIC was 4 µM (≈ 16.3 µg/mL).

Q: What about the MIC [17] of the same compound?
A: Its MIC is 32 µM (≈ 130 µg/mL).

Q: What about the “% Survival” value [18] of the same compound?
A: The value was 100%.

Q: What about the “antibacterial result of treatment (Table I; MBC)” value (“antibacterial result of treatment” for short) [19] of the same compound?
A: The value was 64 µM.

Q: And the MBC ([19]; Table III, S. aureus (+))?
A: Its MBC is 64 µM (≈ 260 µg/mL).

Q: And the “antibacterial result of treatment” value [20]?
A: Its value is 16 µM.

Q: And the MBC ([20]; Table III)?
A: Its MBC is 2.0 µM (≈ 8.14 µg/mL).

Q: What about the “% Cell Viability” value ([21]; B-16 Monolayer) of the same compound?
A: Its value is 78%.

Q: What about the “% Cell Viability” value ([21]; B-16 Suspension (trypsinized)) of the same compound?
A: Its value is 22%.

Q: What about the viability at 15 minutes, 100 μM ([22]; Cold-treated (4° C.)) of the same compound?
A: Its viability at 15 minutes, 100 μM is 70%.

Q: What about the viability at 15 minutes, 100 μM ([22]; Warm-treated (37° C.)) of the same compound?
A: The viability at 15 minutes, 100 μM was 96%.

Q: What about the viability at 15 minutes, 100 μM ([22]; with colchicine 0.1 μg/ml (cytoskeletal inhibitor), Colchicine-treated (0.1 μg/ml)) of the same compound?
A: Its viability at 15 minutes, 100 μM is 40%.

Q: What about the viability at 15 minutes, 100 μM ([22]; with cytochalasin D 5 μg/ml (cytoskeletal inhibitor), Cytochalasin D-treated (5 μg/ml)) of the same compound?
A: The viability at 15 minutes, 100 μM was 32%.

Q: What about the “antibacterial result of treatment” value [23] of the same compound?
A: The value was 8 µM.

Q: And the MBC ([23]; Table III, P. aeuriginosa (−))?
A: Its MBC is 3.6 µM (≈ 14.7 µg/mL).

Q: What about the viability at 1 h, 100 μM ([24]; normal 3T3 human fibroblasts, 3T3 Suspension (trypsinized)) of the same compound?
A: The viability at 1 h, 100 μM was 12%.

Q: And the viability at 1 h, 100 μM ([24]; 3T3 Monolayer)?
A: The viability at 1 h, 100 μM was 94%.

Q: For `CC[C@H](C)[C@H](NC(=O)[C@H](CC(N)=O)NC(=O)[C@H](CCCNC(=N)N)NC(=O)CNC(=O)[C@H](CCSC)NC(=O)[C@H](CCCCN)NC(=O)[C@H](CCC(=O)O)NC(=O)[C@@H](NC(=O)[C@H](CCCCN)NC(=O)[C@H](CC(C)C)NC(=O)[C@H](Cc1ccccc1)NC(=O)[C@@H](NC(=O)[C@H](CCCCN)NC(=O)[C@H](CCC(=O)O)NC(=O)[C@H](CCCCN)NC(=O)[C@@H]1CCCN1C(=O)[C@@H](N)CCSC)C(C)C)[C@@H](C)CC)C(=O)N[C@@H](CCCNC(=N)N)C(=O)N[C@@H](CC(N)=O)C(N)=O` [Vishnu-3] (H-MPKEKVFLKIEKMGRNIRN-NH2), which “lytic activity (in words)” value [25] is on record?
A: The value was “devoid of lytic activity”.

Q: What about the “antibacterial result of treatment” value [19] of the same compound?
A: The value was greater than 64 µM.

Q: What about the “antibacterial result of treatment” value [20] of the same compound?
A: The value was greater than 64 µM.

Q: What about the “antibacterial result of treatment” value [23] of the same compound?
A: Its value is greater than 64 µM.

Q: What about the “stimulation of cell proliferation (in words)” value [26] of the same compound?
A: The value was “potent stimulator of cell proliferation”.
